One test has as its target SARS-CoV-2 nsp14/10 (Severe acute respiratory syndrome coronavirus 2, UniProt P0DTD1). The experiment in a line: Fluorescence polarization (FP) FTAD displacement assay, nsp14/10. Format: binding. To be noted: for Kd: 50 nM FTAD; for displacement of FTAD: 1 μM compound. (Fluorescence polarisation rises when a labelled molecule tumbles more slowly, as on binding a larger partner.)

Test [1] deals with T1, METTL3/14 (Homo sapiens, UniProt Q86U44).
T1 construct: human METTL3 (UniProt: Q86U44 aa 252–580); Strep tag-II (C); made in house; host or cells: E. coli BL21(DE3), pETduet-1
The experiment in a line: Fluorescence polarization (FP) FTAD displacement assay, METTL3/14. The class given is binding. To be noted: for displacement of FTAD: 100 μM compound; for displacement of FTAD / KD (METTL3/14, FP-assay) / Kd: 50 nM FTAD, 1 μM enzyme; for KD (METTL3/14, FP-assay) / Kd: compound dilution series.

Test [2] deals with T2, nsp14/10 (Severe acute respiratory syndrome coronavirus 2, UniProt P0DTD1). To be noted: cited from earlier work.
Test [3] concerns the target T2, nsp14/10. Description: biochemical. Format: binding. To be noted: for Kd: read-out: KD (ITC).
In test [4] the target is T2, nsp14/10. Description: Microscale thermophoresis (MST) FTAD displacement assay. The note with it: 50 nM FTAD, 3-fold dilution series of nsp14/10. Format: binding. In general terms: In MST a laser heats a spot of the sample, and binding alters the fluorescence response.
In a further test the target is human DNMT2. Details: method as in PMID 39145518. The note with it: probe affinity; read-out: KD of FTAD for DNMT2; cited from earlier work.
For test [5], the target named is T1, METTL3/14. Details: method as in PMID 39145518. The note with it: probe affinity; read-out: KD of FTAD for METTL3/14; cited from earlier work.
[6] abbreviates: 1 μM enzyme, compound dilution series, read-out: KD (nsp14/10, determined by FP-assay).
[7] abbreviates: ligand 0.305 µM, dilution series.
[8] abbreviates: ligand 0.914 µM, dilution series.
Setting [9] is: ligand 2.74 µM, dilution series.
Setting [10] is: ligand 8.22 µM, dilution series.
[11] abbreviates: ligand 24.7 µM, dilution series.
The mark [12] stands for this setting: ligand 74.0 µM, dilution series.
[13] abbreviates: ligand 100 µM, triplicate wells.
Where [14] appears, read: ligand 100 µM, triplicate wells, enzyme not printed in Table S4.
Where [15] appears, read: mean ± standard deviation from duplicate measurements, 25 °C.
[16] abbreviates: single measurement (one of duplicates).

Several values for one entry are separate records, joined by “and”; a condition that tells them apart may be missing. Equal values may be shown once. Read-outs that look alike come from different tables or passages of the source.

T1 sequence (Q86U44 252-580): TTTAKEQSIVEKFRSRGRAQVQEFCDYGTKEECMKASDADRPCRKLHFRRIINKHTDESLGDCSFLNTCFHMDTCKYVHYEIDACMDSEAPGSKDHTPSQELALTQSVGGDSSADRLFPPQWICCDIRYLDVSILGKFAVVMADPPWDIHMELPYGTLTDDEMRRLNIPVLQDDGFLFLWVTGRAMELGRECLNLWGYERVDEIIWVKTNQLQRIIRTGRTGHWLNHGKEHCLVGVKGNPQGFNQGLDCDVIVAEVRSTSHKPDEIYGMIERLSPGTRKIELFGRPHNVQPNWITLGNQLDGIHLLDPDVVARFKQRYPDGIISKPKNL
T1 sequence (Q9HCE5 108-444 partner limits assumed): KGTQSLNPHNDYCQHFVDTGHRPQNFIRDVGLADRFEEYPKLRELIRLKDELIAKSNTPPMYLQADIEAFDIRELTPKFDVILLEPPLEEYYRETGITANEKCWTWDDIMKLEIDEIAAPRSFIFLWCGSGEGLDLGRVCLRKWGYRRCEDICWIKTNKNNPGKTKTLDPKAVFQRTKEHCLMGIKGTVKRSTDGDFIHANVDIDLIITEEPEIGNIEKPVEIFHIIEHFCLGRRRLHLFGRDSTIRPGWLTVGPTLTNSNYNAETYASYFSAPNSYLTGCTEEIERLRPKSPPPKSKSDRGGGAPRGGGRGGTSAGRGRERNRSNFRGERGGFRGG

Consider `Nc1ncnc2c1ncn2[C@@H]1O[C@H](CNS(=O)(=O)Cc2ccc3ccccc3c2)[C@@H](O)[C@H]1O` [Compound 65, N-(((2R,3S,4R,5R)-5-(6-Amino-9H-purin-9-yl)-3,4-dihydroxytetra hydrofuran-2-yl)methyl)-1-(naphthalen-2-yl)methanesulfon amide], for which the Kd at SARS-CoV-2 nsp14/10 (setting [6]) is 3.8 ± 0.78 µM.

Take `Nc1ncnc2c1ncn2[C@@H]1O[C@H](C[C@@H](N)CC[C@H](N)C(=O)O)[C@@H](O)[C@H]1O` [SFG, sinefungin, reference compound]: the “displacement of FTAD” value at METTL3/14 [1] is listed as 92%.

Regarding `Cc1cccc(-c2cncc(C(=O)NC[C@H]3O[C@@H](n4cnc5c(N)ncnc54)[C@H](O)[C@@H]3O)c2)c1` [Compound 64, N-(((2R,3S,4R,5R)-5-(6-Amino-9H-purin-9-yl)-3,4-dihydroxytetra hydrofuran-2-yl)methyl)-5-(m-tolyl)nicotinamide], the Kd on SARS-CoV-2 nsp14/10 (setting [6]) came to 2.9 ± 0.38 µM.

For `CN(C)c1cccc2c(S(=O)(=O)NC[C@H]3O[C@@H](n4cnc5c(N)ncnc54)[C@H](O)[C@@H]3O)cccc12` [Compound 42, N-(((2R,3S,4R,5R)-5-(6-Amino-9H-purin-9-yl)-3,4-dihydroxy-tetrahydrofuran-2-yl)methyl)-5-(dimethylamino)naphthalen-1-sulfonamide], the “KD (METTL3/14, FP-assay)” value at METTL3/14 [1] is reported as “low micromolar affinity”. This molecule also gave a Kd on METTL3/14 [1] of 22.5 ± 1.4 µM. In addition, on METTL3/14 [1], the “displacement of FTAD” value is given as roughly 92%. Besides, the “fluorescence polarization, raw data” value on METTL3/14 [1] (setting [7]) was 144 mP and 142 mP and 140 mP; at METTL3/14 [1] (setting [8]), 131 mP and 134 mP and 139 mP; on METTL3/14 [1] (setting [9]) it was 128 mP and 126 mP; at METTL3/14 [1] (setting [10]), 116 mP and 113 mP and 115 mP; on METTL3/14 [1] (setting [11]), 90 mP and 84 mP and 93 mP; on METTL3/14 [1] (setting [12]) it was 40 mP and 43 mP and 54 mP. Also, the “fluorescence polarization, raw data” value was 44 mP and 42 mP and 39 mP on METTL3/14 [1] (setting [14]); 23 mP and 28 mP and 40 mP at METTL3/14 [1] (ligand 222 µM, dilution series); 30 mP and 36 mP and 33 mP on METTL3/14 [1] (ligand 666 µM, dilution series). For the same molecule, the “total intensity, raw data” value is 16997 and 14743 and 15446 at METTL3/14 [1] (setting [7]); 16613 and 15443 and 18075 at METTL3/14 [1] (setting [8]); 15091 and 15438 and 15739 on METTL3/14 [1] (setting [9]); 16190 and 14718 and 16069 on METTL3/14 [1] (setting [10]); 17750 and 16617 and 17703 on METTL3/14 [1] (setting [11]); 17281 and 16313 and 18091 at METTL3/14 [1] (setting [12]). Moreover, the “total intensity, raw data” value on METTL3/14 [1] (setting [13]) was 18205 and 16177 and 16524; on METTL3/14 [1] (ligand 222 µM, dilution series), 22984 and 20625 and 20534; on METTL3/14 [1] (ligand 666 µM, dilution series), 25251 and 24796 and 26626.

Consider `Nc1ncnc2c1ncn2[C@@H]1O[C@H](CNS(=O)(=O)c2ccc(Br)c([N+](=O)[O-])c2)[C@@H](O)[C@H]1O` [Compound 44, N-(((2R,3S,4R,5R)-5-(6-Amino-9H-purin-9-yl)-3,4-dihydroxytetrahydrofuran-2-yl)methyl)-4-bromo-3-nitrobenzenesulfon amide], for which the “inhibition of nsp14/10” value at nsp14/10 [2] is given as “low micromolar range”.

Take `Nc1ncnc2c1ncn2[C@@H]1O[C@H](CNS(=O)(=O)c2ccc(Cl)c(C(F)(F)F)c2)[C@@H](O)[C@H]1O` [Compound 46, N-(((2R,3S,4R,5R)-5-(6-Amino-9H-purin-9-yl)-3,4-dihydroxy-tetrahydrofuran-2-yl)methyl)-4-chloro-3-(trifluoromethyl) benzenesulfonamide]: at nsp14/10 [3] (setting [15]), the “KD (ITC)” value is “nanomolar range” and the Kd turned out to be 0.106 ± 0.006 µM. In addition, on nsp14/10 [3] (setting [16]), the “-T∆S (ITC)” value was 15.8 kcal/mol and 13.8 kcal/mol; the “stoichiometry n (ITC)” value is 0.43 and 0.44; the Kd was 0.111 µM and 0.1 µM. Also, the “displacement of FTAD” value at SARS-CoV-2 nsp14/10 was determined as 100%.

As for `Nc1ncnc2c1ncn2[C@@H]1O[C@H](CNS(=O)(=O)Cc2ccccc2)[C@@H](O)[C@H]1O` [Compound 66, N-(((2R,3S,4R,5R)-5-(6-Amino-9H-purin-9-yl)-3,4-dihydroxytetra hydrofuran-2-yl)methyl)-1-phenylmethanesulfonamide], the Kd at SARS-CoV-2 nsp14/10 (setting [6]) amounted to 42.3 ± 11.1 µM.

As for `Nc1ncnc2c1ncn2[C@@H]1O[C@H](CSCC[C@H](N)C(=O)O)[C@@H](O)[C@H]1O` [SAH, S-adenosyl-L-homocysteine, reference compound], on METTL3/14 [1] (setting [13]), the “total intensity, raw data” value was 15527 and 14218 and 14357. For the same molecule, on METTL3/14 [1] (setting [14]), the “fluorescence polarization, raw data” value was 13 mP and 7 mP and 8 mP.

Regarding `Nc1ncnc2c1ncn2[C@@H]1O[C@H](CNS(=O)(=O)c2ccc(-c3ccccc3)cc2)[C@@H](O)[C@H]1O` [Compound 40, N-(((2R,3S,4R,5R)-5-(6-Amino-9H-purin-9-yl)-3,4-dihydroxy-tetrahydrofuran-2-yl)methyl)-[1,1′-biphenyl]-4-sulfonamide], at METTL3/14 [1], the “KD (METTL3/14, FP-assay)” value was “low micromolar affinity”; the Kd stood at 16.1 ± 4.6 µM; the “displacement of FTAD” value is roughly 92%.

For the molecule `Cc1ccc(S(=O)(=O)NC[C@H]2O[C@@H](n3cnc4c(N)ncnc43)[C@H](O)[C@@H]2O)cc1[N+](=O)[O-]` [Compound 47, N-(((2R,3S,4R,5R)-5-(6-Amino-9H-purin-9-yl)-3,4-dihydroxy-tetrahydrofuran-2-yl)methyl)-4-methyl-3-nitrobenzenesulfon amide], the “inhibition of nsp14/10” value on nsp14/10 [2] is given as “low micromolar range”.

In the case of `Nc1ncnc2c1ncn2[C@@H]1O[C@H](CN(CC[C@H](N)C(=O)O)Cc2cn(CCNC(=O)c3ccc4c(c3)C(=O)OC43c4ccc(O)cc4Oc4cc(O)ccc43)nn2)[C@@H](O)[C@H]1O` [FTAD, 5-FAM-triazolyl-adenosyl-diaminobutyric acid], the Kd at nsp14/10 [4] is 1.2 ± 0.1 µM; on human DNMT2, 6.4 ± 0.7 µM; at SARS-CoV-2 nsp14/10 (2-fold dilution series of nsp14/10 from 3.00 μM to 46.9 nM, read-out: KD(FTAD, nsp14/10), FP-assay) it was 1.3 ± 0.3 µM; on METTL3/14 [5], 1.1 ± 0.1 µM.

For the molecule `Nc1ncnc2c1ncn2[C@@H]1O[C@H](CNC(=O)Cc2cccc(F)c2Br)[C@@H](O)[C@H]1O` [Compound 63, N-(((2R,3S,4R,5R)-5-(6-Amino-9H-purin-9-yl)-3,4-dihydroxytetra hydrofuran-2-yl)methyl)-2-(2-bromo-3-fluorophenyl)acetamide], on SARS-CoV-2 nsp14/10 (setting [6]), the Kd came out at 17.2 ± 5.5 µM.

Turning to `Nc1ncnc2c1ncn2[C@@H]1O[C@H](CNS(=O)(=O)/C=C/c2ccccc2)[C@@H](O)[C@H]1O` [Compound 35, (E)-N-(((2R,3S,4R,5R)-5-(6-Amino-9H-purin-9-yl)-3,4-di-hydroxytetrahydrofuran-2-yl)methyl)-2-phenylethene-1-sulfonamide], at nsp14/10 [3] (mean ± standard deviation from duplicate measurements), the “ΔH (ITC)” value is -32.86 kcal/mol. Also, the “KD (ITC)” value at nsp14/10 [3] (setting [15]) is “nanomolar range”. On nsp14/10 [3] (setting [16]), the “-T∆S (ITC)” value is 24.6 kcal/mol and 22.5 kcal/mol; the “stoichiometry n (ITC)” value is 0.42 and 0.45; the Kd is 0.151 µM and 0.169 µM. Moreover, the “displacement of FTAD” value at SARS-CoV-2 nsp14/10 stood at 100%.

As for `Nc1ncnc2c1ncn2[C@@H]1O[C@H](CNS(=O)(=O)c2ccc3ccccc3c2)[C@@H](O)[C@H]1O` [Compound 34, N-(((2R,3S,4R,5R)-5-(6-Amino-9H-purin-9-yl)-3,4-dihydroxy-tetrahydrofuran-2-yl)methyl)naphthalene-2-sulfonamide], on METTL3/14 [1], the “KD (METTL3/14, FP-assay)” value was “low micromolar affinity”; the Kd stood at 12.9 ± 2 µM; the “displacement of FTAD” value is reported as roughly 92%. Moreover, the “KD (ITC)” value at nsp14/10 [3] (setting [15]) is recorded as “nanomolar range”. On nsp14/10 [3] (setting [16]), the “-T∆S (ITC)” value is 12 kcal/mol and 14.9 kcal/mol; the “stoichiometry n (ITC)” value was 0.66 and 0.67; the Kd was 0.165 µM and 0.214 µM. The “binding and inhibition of nsp14/10” value on nsp14/10 [2] was “nanomolar range”. Besides, the “displacement of FTAD” value at SARS-CoV-2 nsp14/10 is 100%.

(Values after paper PMC12412055, “Parallel synthesis of 5′-amino-5′-deoxy-adenosine derivatives for focused chemical space exploration and their application as methyltransferase inhibitors” (RSC Medicinal Chemistry, 2025).)
